Tests used:
[1] = system: seed geranium; conditions: Lee et al. (1996), in combination with nitrogen, phosphorus, and potassium; cited from earlier work
[2] = system: French marigold; conditions: Choi et al. (1996); cited from earlier work
[3] = system: Forbs (Weeds); assay: Weedy turf test plots: forb (weed) cover and weed control after treatment; assay type: in vivo; conditions: for control of invasive weeds, in words: Fall-treated turf plots of Table 4, 10-month study period, rate as in the label; for Forbs (Weeds) 8 months: cover in weedy turf plots of Table 4, 8 months; for Forbs (Weeds) 10 months: cover in weedy turf plots of Table 4, 10 months; for Forbs (Weeds) 12 months: cover in weedy turf plots of Table 4, 12 months; for 8-12 month average weed cover: weedy turf plots of Table 4
Description: Then, multiple plots were installed in weedy turf for liquid boron fertilizer application. The plots listed in Table 4 were used for varying application rates of B1300 where the amount of liquid applied to each plot varied. The sprayer was weighed before and after each application and the application rate determined by calculation knowing the concentration of B1300 liquid applied. The results of foliar liquid applied in controlling invasive species is reported in FIG. 3 and compared to an untreated control. As presented in FIG. 3, […] rates of liquid B1300 (47 pounds B/acre, 62 pounds B/acre, 75 pounds B/acre, and 93 pounds B/acre), which show the effectiveness of each rate in limiting the growth of invasive plant species. The weedy plants controlled included dandelion (Taraxacum officiniale), oxeye daisy (Chrysanthemum leucanthemum), black medic (Medicago lupulina), Canadian thistle (Circium arvense), and white clover (Trifolium repens). The desirable perennial grasses that were unharmed or stimulated included Kentucky bluegrass (Poa pratensis) and smooth brome (Bromus inermis). The effectiveness of relevant commercial products targeting control of invasive plant species are shown in FIG. 5C and include glyphosate, Natria FeHEDTA and 2-4 D.
(§1) Table 4 lists the tested plots with various treatment using granular and/or liquid boron formulations alone, or in combination with another micronutrient Cu and/or macronutrients including N, P, K. FIG. 3 and FIGS. 5A-5E represent phytotoxicity effect on weed control by investigating coverage after the desired treatments from the test plots listed in Table 4. Also, FIGS. 9A-9D to FIGS. 25A-25D present actual vegetation conditions of each plot after the desired treatment described in Table 4.
[…] At this North American field site snow covered the ground from approximately December through March. The weedy plants controlled included dandelion (Taraxacum officiniale), oxeye daisy (Chrysanthemum leucanthemum), black medic (Medicago lupulina), Canadian thistle (Circium arvense), and white clover (Trifolium repens). The desirable perennial grasses that were unharmed or stimulated included Kentucky bluegrass (Poa pratensis) and smooth brome (Bromus inermis).

[4] = system: chlorophyllitic plants; conditions: as little as; cited from earlier work
[5] = system: prostrate knotweed; assay: Foliar spray on prostrate knotweed, compared with Roundup; assay type: in vivo, Polygonum aviculare
Description: In this example, liquid B1300 product was formulated by dissolving 1300 grams of 20.5% Boron (Solubor®) into 4 gallons of water for a foliar spray to target plants, either with or without ‘drizzle down’ of the liquid into the roots. Also, liquid B1440 product was formulated by dissolving 1440 grams of 20.5% Boron (Solubor®) into 4 gallons of water. Many invasive plants are controlled by B1300 foliar spray as presented in FIGS. 1A-1C or B1440 foliar spray as presented in FIGS. 2A-2C. Annual invasive plant species are easily controlled by phytotoxic nutrient addition since they have to grow from seed every year and have the least reliance on well—developed/extensive root systems and/or taproots that store plant resources. Annual invasive plants also have to grow from near the soil surface every year where it is easiest to add phytotoxic micronutrients and change the soil chemistry to inhibit or control the annual plant's growth. Perennial invasive plants grow every year from the previous years roots and take generally two forms: tap root species and extensive well-developed root systems. In general, it is difficult to control these invasive perennial plants compared to annual plants due to roots with plant resources deep in the soil. […]

[6] = system: Perennial Grass; assay: Weedy turf test plots: perennial grass cover and turf stress after treatment; assay type: in vivo; conditions: for Perennial Grass 8 months: cover in weedy turf plots of Table 4, 8 months, B and N rates per treatment; for Perennial Grass 10 months: cover in weedy turf plots of Table 4, 10 months; for Perennial Grass 12 months: cover in weedy turf plots of Table 4, 12 months; for 8-12 month average grass cover: weedy turf plots of Table 4
Description: Then, multiple plots were installed in weedy turf for liquid boron fertilizer application. The plots listed in Table 4 were used for varying application rates of B1300 where the amount of liquid applied to each plot varied. The sprayer was weighed before and after each application and the application rate determined by calculation knowing the concentration of B1300 liquid applied. The results of foliar liquid applied in controlling invasive species is reported in FIG. 3 and compared to an untreated control. As presented in FIG. 3, the plots were monitored 1 month, 8 months and 10 months after four different application rates of liquid B1300 (47 pounds B/acre, 62 pounds B/acre, 75 pounds B/acre, and 93 pounds B/acre), which show the effectiveness of each rate in limiting the growth of invasive plant species. The weedy plants controlled included dandelion (Taraxacum officiniale), oxeye daisy (Chrysanthemum leucanthemum), black medic (Medicago lupulina), Canadian thistle (Circium arvense), and white clover (Trifolium repens). The desirable perennial grasses that were unharmed or stimulated included Kentucky bluegrass (Poa pratensis) and smooth brome (Bromus inermis). The effectiveness of relevant commercial products targeting control of invasive plant species are shown in FIG. 5C and include glyphosate, Natria FeHEDTA and 2-4 D.
as §1
In this example the fertilizer was applied to weedy turf grass in September with approximately 50% invasive plant cover and then monitored again one, eight and ten months after initial application. At this North American field site snow covered the ground from approximately December through March. The weedy plants controlled included dandelion (Taraxacum officiniale), oxeye daisy (Chrysanthemum leucanthemum), black medic (Medicago lupulina), Canadian thistle (Circium arvense), and white clover (Trifolium repens). The desirable perennial grasses that were unharmed or stimulated included Kentucky bluegrass (Poa pratensis) and smooth brome (Bromus inermis).

[7] = system: weedy turf; assay: Weedy turf test plots: Vegetation Ranking Index; assay type: in vivo; conditions: healthy perennial grass cover x 3.5 minus 2.5 x stressed/unhealthy grass minus weed cover
Description: as §1

[8] = system: selected grasses and forbs; conditions: greenhouse trials, Munshower and others (2006); cited from earlier work
[9] = system: humans; conditions: 2005 carcinogen assessment guidelines; cited from earlier work

[Fe] [Fe, iron]
concentration of nutrient solution inducing toxicity symptoms [1]: 500 µM
concentration inducing micro-nutrient toxicity [2]: 4000 µM

O=C(O)CNCP(=O)(O)O [Glyphosate (S), glyphosate]
control of invasive weeds, in words [3]: dominated by weeds by mid-summer
effectiveness in treated turf plots ([3]; about 30 days after treatment): 100%
Forbs (Weeds) 8 months [3]: 10%
Forbs (Weeds) 10 months [3]: 95%
Forbs (Weeds) 12 months [3]: 90%
weed cover ([3]; next year after treatment, pre-treatment ~50% weed cover): ~75%
8-12 month average weed cover [3]: 65%
application rate effective at causing photosynthetic disruption [4]: 0.75 pounds active ingredient per acre
effectiveness on prostrate knotweed, in words ([5]; along a gravel trail, FIG. 26D): highly effective
effectiveness in rain affected test ([5]; plots put out 3 hours before a heavy rain (~1.0")): highly effective
stress on perennial turf grasses, in words ([6]; Fall-treated turf plots of Table 4, 10-month study period, rate as in the label): has no perennial grasses
Perennial Grass 8 months [6]: 0%
Perennial Grass 10 months [6]: 0%
Perennial Grass 12 months [6]: 0%
8-12 month average grass cover [6]: 0%
Vegetation Ranking Index [7]: −133

[B] [B, boron]
concentration of nutrient solution inducing toxicity symptoms [1]: 500 µM
concentration inducing micro-nutrient toxicity [2]: 500 µM
solution concentration at which plants performed adequately [8]: up to 40 mg B/L

[Mo] [Mo, molybdenum]
concentration of nutrient solution inducing toxicity symptoms [1]: 250 µM
concentration inducing micro-nutrient toxicity [2]: 1000 µM

[Cu] [Cu, copper]
concentration of nutrient solution inducing toxicity symptoms [1]: 500 µM
concentration inducing micro-nutrient toxicity [2]: 4000 µM

O=C(O)COc1ccc(Cl)cc1Cl [2-4D (S), 2,4-Dichlorophenoxyacetic acid]
control of invasive weeds, in words [3]: short-term treatment effect
Forbs (Weeds) 8 months [3]: 5%
Forbs (Weeds) 10 months [3]: 15%
Forbs (Weeds) 12 months [3]: 22%
8-12 month average weed cover [3]: 14%
Perennial Grass 8 months [6]: 90%
Perennial Grass 10 months [6]: 85%
Perennial Grass 12 months [6]: 78%
8-12 month average grass cover [6]: 84%
Vegetation Ranking Index [7]: 13

[Mn+2] [Mn, manganese]
concentration of nutrient solution inducing toxicity symptoms [1]: 1000 µM
concentration inducing micro-nutrient toxicity [2]: 2000 µM

[Zn] [Zn, zinc]
concentration of nutrient solution inducing toxicity symptoms [1]: 500 µM
concentration inducing micro-nutrient toxicity [2]: 5000 µM

OB(O)O [boric acid]
U.S. EPA carcinogenicity classification [9]: not likely to be carcinogenic to humans

From patent publication US20200187504A1, “ENVIRONMENTALLY FRIENDLY COMPOSITIONS FOR FOLIAR AND GRANULAR CONTROL OF WEEDS” (priority 2018, published 2020)
